For data set [1], the target named is T1, α-chymotrypsin (Bos taurus, UniProt P00766).
T1 construct: α-Ch results from the removal of two dipeptides at positions 14-15 and 147-148 in chymotrypsinogen; purchased Sigma C-4129 (lot # 105K7670); host or cells: bovine pancreas
The data set is described as follows: SANS of α-chymotrypsin/azoTAB solutions (Guinier, PDDF, shape reconstruction). Set-up: species or system bovine. As to the method: Small-angle neutron scattering experiments were performed on the 30-m NG3 SANS instruments at NIST. (24) A neutron wavelength of λ=6 Å and a detector offset of 25 cm with two sample-detector distances of 1.33 and 7.0 m were utilized to achieve a Q range of 0.0048-0.46 Å^−1. The net intensities were corrected for the background and empty cell (pure D2O), accounting for the detector efficiency using the scattering from an isotropic scatterer (Plexiglas), and converted to an absolute differential cross section per unit sample volume (in units of cm^−1) using an attenuated empty beam. The data were then corrected for incoherent scattering by subtracting a constant background. The shape-reconstruction algorithm GA_STUCT (11) was used to generate solution conformations, similar to previous studies (10, 11). Beginning with an initial guess of randomly-distributed scattering centers, the program rearranges the position of the scattering centers to best fit the experimental scattering data.
The weight-average molecular weight (Mw) of each sample was calculated from the equation
where ρS and ρP are the scattering length densities of the solvent (6.36×10^10 cm^−2) and protein (3.23×10^10 cm^−2), respectively, c is the protein concentration (11.6 mg/mL at pH 3 and 11.4 mg/mL at pH 7), and υ is the protein specific volume (0.734 cm^3/g). (25) I(0)-values were determined from Guinier plots (25) using I(Q)=I(0)exp(−Q^2Rg^2/3), where Rg is the radius of gyration. Guinier plots, generally valid for QRg<1.3, can be influenced by solution structuring due to intermolecular interactions between charged proteins, which becomes increasingly important as Q decreases below 1.5/R (10) (or <0.05 Å^−1 using an α-Ch radius ˜30 Å). Thus, pair distance distribution functions were calculated from the SANS data using the program GNOM (26) according to the equation
where P(r) is related to the probability of two scattering centers (nuclei for SANS) being a distance r+dr apart, and Dmax is the maximum distance between scattering centers within the protein or protein oligomer. I(0)-values were then obtained from the PDDFs through I(0)=4π∫0^D^maxP(r)dr, which has the advantage of utilizing the entire Q-range to determine I(O), as opposed to just the low-Q values as in Guinier analysis (27).

The next data set concerns the target T2, chymotrypsinogen-A (Bos taurus, UniProt P00766).
T2 construct: Chymotrypsinogen is the zymogen of α-chymotrypsin; purchased Worthington LS005630; host or cells: bovine pancreas
The data set is described as follows: SAXS of chymotrypsinogen-A/azoTAB solutions. Set-up: species or system bovine. The procedure:
The small-angle X-ray scattering data were measured using the X21 beamline at the National Synchrotron Light Source at the Brookhaven National Laboratory. (28) The X-ray wavelength was set to 1.24 Å with a pair of Si(111) monochromator crystals. The sample-to-detector distance was calibrated to be 1.69 m using a silver behenate standard. To avoid radiation damage, solutions were continuously passed at a flow rate of 60 μL/min through a 1-mm glass capillary housed within an aluminum block containing Plexiglas observation windows. (28) The net intensities were corrected for the background and solvent scattering as well as sample transmission, and were put on an absolute scale by comparison with a calibration standard (10 mg/mL BSA (10)).

For data set [2] the following is noted: cited from earlier work.
The target in data set [3] is T1, α-chymotrypsin. The data set is described as follows: TEM of α-Ch/azoTAB solutions. Set-up: species or system bovine. To be noted: two weeks (fresh solution) or approx. one year (SANS solution, pH 3, 4.2 mM azoTAB). The procedure: Transmission electron microscopy was performed on a Philips EM420 TEM operating at 80 kV. A drop of protein solution was placed on a carbon-coated grid for 10 seconds and then blotted with filter paper, followed by repeating this procedure with a second drop. The grid was then placed in a freshly made 1 wt % uranyl acetate solution for 30 s.

For data set [4], the target named is T1, α-chymotrypsin. The data set is described as follows: Congo red staining, optical microscopy of α-Ch/azoTAB solution. Set-up: species or system bovine. The following applies: α-Ch/azoTAB solution aged for five days. The procedure:
Optical microscopy was performed on an Olympus IX71 inverted fluorescence microscope equipped using a 50× lens (Olympus, model SLCPlanFl) and a U-N41027 CAL CRIM C58158 filter cube (Chroma, model 058158). Images were recorded with a Hamamatsu digital CCD camera (model C4742-95). Aliquots (5-10 μL) of the protein-surfactant solution were deposited onto glass slides and dyed with an equal volume of a 400 μM Congo red aqueous solution.

Data set [5] has as its target T1, α-chymotrypsin. The data set is described as follows: FT-IR secondary structure of α-Ch/azoTAB mixtures. Set-up: species or system bovine. To be noted: addition of trans azoTAB to pure α-Ch, and UV exposure of α-Ch/azoTAB. The procedure: Infrared spectra were measured with a Genesis II FT-IR spectrometer (Mattson Instruments). Solutions were loaded in a demountable liquid cell equipped with a circulating water jacket (T=20° C.) between a pair of CaF2 windows using a 50 μm Teflon spacer. A liquid light guide (Oriel, model no. 77557) was used to directly illuminate the sample with UV or visible light for 2 hours prior to and during data collection, as previously described (9). The sample chamber was continuously purged with dry air to eliminate the influence of water vapor. For each spectrum, a 500-scan interferogram was collected with a 2 cm^−1 resolution. The relatively sharp surfactant peaks at ˜1600 cm^−1 were removed by subtracting the spectra measured for a pure surfactant solution under otherwise identical conditions, resulting in corrected spectra that were flat in the region between 2000 and 1750 cm^−1. Fourier self-deconvolution (FSD) was applied to spectra to resolve the overlapping bands in the Amide I region using a band-narrowing factor k=2.0 and a full width at half height of 12.6 cm^−1. Second derivative spectra were obtained with the Savitsky-Golay function for a 3rd order polynomial, using a 13 data point window. […] Difference spectra obtained for pure α-chymotrypsin solutions without surfactant shown no significant absorbance changes (<1% throughout the amide I region).

Like-named read-outs stand apart in the source and are kept apart here.

We go through one compound from US20090075318A1, “USING PHOTO-RESPONSIVE SURFACTANTS TO REVERSIBLY CONTROL PROTEIN AGGREGATION WITH LIGHT ILLUMINATION” (University of Southern California, priority 2007, published 2009).

For the compound `CCc1ccc(/N=N/c2ccc(OCC[N+](C)(C)C)cc2)cc1` [azoTAB, azobenzene-trimethylammonium bromide surfactant], the “Rg from second Guinier slope (monomer)” value on α-chymotrypsin [1] (Q^2 ~0.01-0.03 Å^-2, α-Ch/azoTAB solutions, pH 3 and pH 7, visible and UV) is on record as 17.0-18.2 Å. Further, the entries for the “type of protein self-association” value on α-chymotrypsin [1] (UV light (cis azoTAB)) and at α-chymotrypsin [1] (visible light (trans azoTAB)) were “monomer-dodecamer equilibrium” and “monomer-hexamer equilibrium”, respectively. The “Dmax of oligomer (PDDF)” value at α-chymotrypsin [1] (UV light, dodecamer) was roughly 160 Å; at α-chymotrypsin [1] (visible light, hexamer) it was roughly 120 Å. On α-chymotrypsin [1] (UV light, dodecamer), the “most probable dimension (PDDF peak)” value is given as 40-50 Å. For the same compound, the “effective oligomer size n^eff reached with increasing surfactant concentration” value at α-chymotrypsin [1] (UV light, SANS and SAXS data) was determined as 12. Further, at α-chymotrypsin [1] (hexamer or dodecamer, compared to monomer Rg), the “scaling exponent of Rg^n with oligomer Mw” value amounted to 0.42±0.03. Moreover, the “increase in Rg with the addition of azoTAB” value at α-chymotrypsin [1] (monomer Rg, Table 1) is 7%. Also, the “Rg of chymotrypsinogen (Guinier)” value on chymotrypsinogen-A (24 mM azoTAB, visible light, 10.0 mg/mL protein) was 19.7 Å. In addition, at chymotrypsinogen-A (UV light, 19 mM and 24 mM azoTAB), the “increase in I(0) relative to the monomer data” value is 12 fold. In addition, the “time for complete visible-light induced dissociation of UV-equilibrated samples” value on chymotrypsinogen-A (re-exposure to 434-nm visible light) is on record as “several hours”. The “I(0)” value on chymotrypsinogen-A (visible light) was in the range of 0.2 to 0.25 cm⁻¹. The isomer ratio in data set [2] (350-nm UV light) is given as 90/10; in data set [2] (visible light, 434 nm) it was 75/25. The trans isomer in data set [2] (in the dark, about 24 hours) is roughly 100%. The cis→trans isomerization kinetics result in data set [2] (visible light) is on record as “within minutes”. Also, the fibril diameter entry at α-chymotrypsin [3] was “ca. 10 nm”. Moreover, the “Congo red staining result” value at α-chymotrypsin [4] was “characteristic Congo red fluorescence as well as “apple green” birefringence”. Besides, the “FT-IR change on association” value on α-chymotrypsin [5] was “increase in peaks at 1612 and 1685 cm^−1”.
